Measured values published in US11344554B2, “Animal and human anti-malarial agents” (Celgene Corporation, priority 2016, dated 2022).

Tested on: Plasmodium falciparum
Experiment: Plasmodium falciparum in vitro [3H]-hypoxanthine parasite growth inhibition assay
Format: cell-based
Conditions: Erythrocyte, P. falciparum asexual blood stage parasites in human erythrocytes, [3H]-hypoxanthine uptake, read-out: Act Class (IC50 activity level)

| IC50 [µM] | SMILES |
| --- | --- |
| 0.1 to 0.2 | CC1(Nc2ncc3nc(Nc4ccc(C(F)(F)F)cc4)n(C4CCNCC4)c3n2)CCOCC1 [Cpd 15, N2-(4-methyltetrahydro-2H-pyran-4-yl)-9-(piperidin-4-yl)-N8-(4-(trifluoromethyl)phenyl)-9H-purine-2,8-diamine] |
| < 0.1 | CC(C)(C)Nc1ncc2nc(Nc3cc(Cl)cc(C(F)(F)F)c3)n(C3CCN(CCN)CC3)c2n1 [Cpd 39, 9-(1-(2-aminoethyl)piperidin-4-yl)-N2-tert-butyl-N8-(3-chloro-5-(trifluoromethyl)phenyl)-9H-purine-2,8-diamine] |
| < 0.1 | CC1(Nc2ncc3nc(Nc4cc(Cl)cc(C(F)(F)F)c4)n(C4CCNCC4)c3n2)CCC1 [Cpd 69, N8-(3-chloro-5-(trifluoromethyl)phenyl)-N2-(1-methylcyclobutyl)-9-(piperidin-4-yl)-9H-purine-2,8-diamine] |
| 0.2 to 0.5 | CC(C)(C)Nc1ncc2nc(Nc3cccc(C(F)(F)F)c3)n(CC3CCNC3)c2n1 (stereo not drawn) [Cpd 24, N2-tert-butyl-9-(pyrrolidin-3-ylmethyl)-N8-(3-(trifluoromethyl)phenyl)-9H-purine-2,8-diamine] |
| 0.5 to 1.2 | CC(C)(C)Nc1ncc2nc(Nc3cccc(C(F)(F)F)c3)n(C3CCC4CNCC4C3)c2n1 (stereo not drawn) [Cpd 78, N2-tert-butyl-9-(octahydro-1H-isoindol-5-yl)-N8-(3-(trifluoromethyl)phenyl)-9H-purine-2,8-diamine] |
| < 0.1 | CC(C)Nc1ncc2nc(Nc3ccc(Cl)c(Cl)c3)n(C3CCNCC3)c2n1 [Cpd 65, N8-(3,4-dichlorophenyl)-N2-isopropyl-9-(piperidin-4-yl)-9H-purine-2,8-diamine] |
| 0.2 to 0.5 | Clc1cc(Cl)cc(Nc2nc3cnc(NC4CC4)nc3n2C2CCNCC2)c1 [Cpd 34, N2-cyclopropyl-N8-(3,5-dichlorophenyl)-9-(piperidin-4-yl)-9H-purine-2,8-diamine] |
| 0.2 to 0.5 | CC1(Nc2ncc3nc(Nc4cccc(C(F)(F)F)c4)n(CCC4CCNC4)c3n2)CCOCC1 (stereo not drawn) [Cpd 58, N2-(4-methyltetrahydro-2H-pyran-4-yl)-9-(2-(pyrrolidin-3-yl)ethyl)-N8-(3-(trifluoromethyl)phenyl)-9H-purine-2,8-diamine] |
| < 0.1 | CC(C)(C)Nc1ncc2nc(Nc3cc(Cl)cc(OC(F)(F)F)c3)n(C3CCNCC3)c2n1 [Cpd 48, N2-tert-butyl-N8-(3-chloro-5-(trifluoromethoxy)phenyl)-9-(piperidin-4-yl)-9H-purine-2,8-diamine] |
| < 0.1 | CCN1CCC(n2c(Nc3ccc(Cl)c(Cl)c3)nc3cnc(NC(C)(C)C)nc32)CC1 [Cpd 37, N2-tert-butyl-N8-(3,4-dichlorophenyl)-9-(1-ethylpiperidin-4-yl)-9H-purine-2,8-diamine] |
| 0.1 to 0.2 | Fc1cc(Cl)cc(Nc2nc3cnc(NC4CC4)nc3n2C2CCNCC2)c1 [Cpd 62, N8-(3-chloro-5-fluorophenyl)-N2-cyclopropyl-9-(piperidin-4-yl)-9H-purine-2,8-diamine] |
| 0.2 to 0.5 | CC(C)(C)Nc1ncc2nc(Nc3cccc(C(F)(F)F)c3)n(CCC3CCCN3)c2n1 (stereo not drawn) [Cpd 19, N2-tert-butyl-9-(2-(pyrrolidin-2-yl)ethyl)-N8-(3-(trifluoromethyl)phenyl)-9H-purine-2,8-diamine] |
| 0.2 to 0.5 | CC(N)CCn1c(Nc2cc(Cl)cc(C(F)(F)F)c2)nc2cnc(NC(C)(C)C)nc21 (stereo not drawn) [Cpd 112, 9-(3-aminobutyl)-N2-tert-butyl-N8-(3-chloro-5-(trifluoromethyl)phenyl)-9H-purine-2,8-diamine] |

| SMILES | IC50 [µM] |
| --- | --- |
| CC1(Nc2ncc3nc(Nc4cccc(Cl)c4)n(CCN4CCCCC4)c3n2)CCOCC1 [Cpd 16, N8-(3-chlorophenyl)-N2-(4-methyltetrahydro-2H-pyran-4-yl)-9-(2-(piperidin-1-yl)ethyl)-9H-purine-2,8-diamine] | 0.5 to 1.2 |
| CC1(Nc2ncc3nc(Nc4cccc(Cl)c4)n(CCN4CCCC4)c3n2)CCOCC1 [Cpd 17, N8-(3-chlorophenyl)-N2-(4-methyltetrahydro-2H-pyran-4-yl)-9-(2-(pyrrolidin-1-yl)ethyl)-9H-purine-2,8-diamine] | 0.5 to 1.2 |
